Data taken from US12466827B2, “1,3,4-oxadiazole derivative compounds as histone deacetylase 6 inhibitor, and the pharmaceutical composition comprising the same” (CHONG KUN DANG PHARMACEUTICAL CORP., priority 2020, dated 2025).

Columns and labels:
human recombinant HDAC1 = molecular target: T1, human recombinant HDAC1 (Homo sapiens, UniProt Q13547); test: In vitro HDAC enzyme activity inhibition assay (HDAC1); format: biochemical; settings: Fluor de Lys-SIRT1 substrate 10 μM, 30° C., 60 minutes, fluorescence
T1 construct: purchased Enzo Life Sciences, Inc. BML-SE456
T1 sequence (Q13547 whole entry): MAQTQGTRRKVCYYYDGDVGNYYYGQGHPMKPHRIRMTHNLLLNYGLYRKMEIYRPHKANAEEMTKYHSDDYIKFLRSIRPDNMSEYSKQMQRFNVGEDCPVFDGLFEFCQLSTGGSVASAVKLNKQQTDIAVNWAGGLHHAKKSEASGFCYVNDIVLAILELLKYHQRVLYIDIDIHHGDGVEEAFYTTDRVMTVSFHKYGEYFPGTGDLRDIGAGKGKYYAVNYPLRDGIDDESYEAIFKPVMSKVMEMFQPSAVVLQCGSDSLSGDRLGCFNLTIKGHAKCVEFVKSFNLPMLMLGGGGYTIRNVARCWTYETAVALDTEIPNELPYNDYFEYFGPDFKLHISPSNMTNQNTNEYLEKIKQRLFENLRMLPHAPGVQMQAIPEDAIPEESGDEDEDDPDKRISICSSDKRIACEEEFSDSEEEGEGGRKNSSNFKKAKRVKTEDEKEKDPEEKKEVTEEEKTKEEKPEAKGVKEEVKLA
Method: (§1) In order to confirm the selectivity of the compounds represented by Chemical Formula I of the present invention to HDAC6 through HDAC1 and HDAC6 enzyme activity inhibition experiments, a comparison experiment was performed using the material that has already been developed as a control group.
(§2) HDAC enzyme activity was measured using the HDAC Fluorimetric Drug Discovery Kit (Enzo Life Sciences, Inc., BML-AK511, 516). For the HDAC1 enzyme activity test, human recombinant HDAC1 (BML-SE456) was used as an enzyme source and Fluor de Lys-SIRT1 (BNL-KI177) was used as a substrate. After dispensing 5-fold diluted compounds into a 96-well plate, 0.3 μg of enzyme and 10 μM substrate were added to each well of the plate and allowed to react at 30° C. for 60 minutes. Next, Fluor de Lys Developer II (BML-KI176) was added and reacted for 30 minutes to complete the reaction, and then the fluorescence values (Ex 360, Em 460) were measured using a multi-plate reader (Flexstation 3, Molecular Device). The HDAC6 enzymes were tested using human recombinant HDAC6 (382180) from Calbiochem Inc., according to the same protocol as the HDAC1 enzyme activity test method. With respect to the final result values, respective IC50 values were calculated using GraphPad Prism 4.0 program, and results thereof were summarized in Table 4 below.

human recombinant HDAC6 = molecular target: T2, human recombinant HDAC6 (Homo sapiens, UniProt Q9UBN7); test: In vitro HDAC enzyme activity inhibition assay (HDAC6); format: biochemical; settings: for HDAC6 selectivity (fold): HDAC6 over HDAC1; for IC50: same protocol as the HDAC1 test, human recombinant HDAC6 (Calbiochem)
T2 construct: purchased Calbiochem Inc. 382180
T2 sequence (Q9UBN7 1-1215): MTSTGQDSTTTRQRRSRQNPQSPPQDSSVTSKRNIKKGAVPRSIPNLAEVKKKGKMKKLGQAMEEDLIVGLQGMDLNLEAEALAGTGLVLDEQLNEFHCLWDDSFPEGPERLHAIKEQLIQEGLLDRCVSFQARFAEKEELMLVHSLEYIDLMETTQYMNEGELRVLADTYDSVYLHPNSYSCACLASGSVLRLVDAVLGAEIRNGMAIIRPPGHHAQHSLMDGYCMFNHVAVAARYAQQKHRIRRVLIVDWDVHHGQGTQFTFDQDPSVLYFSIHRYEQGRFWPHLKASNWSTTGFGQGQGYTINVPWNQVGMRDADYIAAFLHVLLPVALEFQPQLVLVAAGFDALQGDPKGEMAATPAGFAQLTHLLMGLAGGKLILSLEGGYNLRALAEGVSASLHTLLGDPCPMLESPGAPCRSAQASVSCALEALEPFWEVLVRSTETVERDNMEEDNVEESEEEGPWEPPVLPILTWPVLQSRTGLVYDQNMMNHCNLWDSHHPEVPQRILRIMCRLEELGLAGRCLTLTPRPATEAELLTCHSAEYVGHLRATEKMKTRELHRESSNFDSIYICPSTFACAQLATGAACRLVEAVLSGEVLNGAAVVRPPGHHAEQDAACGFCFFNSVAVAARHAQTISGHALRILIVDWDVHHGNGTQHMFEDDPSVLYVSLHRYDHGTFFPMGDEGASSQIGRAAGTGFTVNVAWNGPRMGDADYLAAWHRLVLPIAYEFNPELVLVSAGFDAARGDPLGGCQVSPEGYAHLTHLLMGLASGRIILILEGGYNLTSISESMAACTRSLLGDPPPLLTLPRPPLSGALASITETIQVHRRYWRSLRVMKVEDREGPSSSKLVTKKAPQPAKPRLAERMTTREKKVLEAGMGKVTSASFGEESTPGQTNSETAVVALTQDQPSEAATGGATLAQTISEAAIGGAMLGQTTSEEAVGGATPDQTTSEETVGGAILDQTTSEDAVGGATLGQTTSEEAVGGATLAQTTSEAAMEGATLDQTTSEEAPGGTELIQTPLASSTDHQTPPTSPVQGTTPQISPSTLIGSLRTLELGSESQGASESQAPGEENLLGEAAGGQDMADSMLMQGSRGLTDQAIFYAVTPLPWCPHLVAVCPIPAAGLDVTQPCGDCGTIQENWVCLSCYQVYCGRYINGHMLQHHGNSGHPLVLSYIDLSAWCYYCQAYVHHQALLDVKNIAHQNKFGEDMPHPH
Method: as §1, §2

SMILES | IC50 (human recombinant HDAC1) [nM] | HDAC6 selectivity (fold) (human recombinant HDAC6) | IC50 (human recombinant HDAC6) [nM]
CN(C)C(=O)N1CCN(S(=O)(=O)N(Cc2cn3ccc(-c4nnc(C(F)F)o4)cc3n2)c2ccccc2)CC1 [Compound 4273, 4—(N-((7-(5-(difluoromethyl)-1,3,4-oxadiazol-2-yl)imidazo[1,2-a]pyridin-2-yl)methyl)-N-phenylsulfamoyl)-N, N-dimethylpiperazine-1-carboxamide] | > 50000 | 413 | 121
CCC(=O)N1CCC(S(=O)(=O)N(Cc2cn3ccc(-c4nnc(C(F)F)o4)cc3n2)c2cccc(F)c2)CC1 [Compound 4246, N-((7-(5-(difluoromethyl)-1,3,4-oxadiazol-2-yl)imidazo[1,2-a]pyridin-2-yl)methyl)-N-(3-fluorophenyl)-1-propionylpiperidine-4-sulfonamide] | > 50000 | 660 | 75.8
O=S(=O)(C1CCN(C2CCC(F)(F)CC2)CC1)N(Cc1cn2ccc(-c3nnc(C(F)F)o3)cc2n1)c1cccc(F)c1 [Compound 4244, 1-(4,4-difluorocyclohexyl)-N-((7-(5-(difluoromethyl)-1,3,4-oxadiazol-2-yl)imidazo[1,2-a]pyridin-2-yl)methyl)-N-(3-fluorophenyl)piperidine-4-sulfonamide] | > 50000 | 525 | 95.3
O=C(N1CCC(S(=O)(=O)N(Cc2cn3ccc(-c4nnc(C(F)F)o4)cc3n2)c2ccccc2)CC1)C(F)(F)F [Compound 4224, N-((7-(5-(difluoromethyl)-1,3,4-oxadiazol-2-yl)imidazo[1,2-a]pyridin-2-yl)methyl)-N-phenyl-1-(2,2,2-trifluoroacetyl)piperidine-4-sulfonamide] | > 50000 | 354 | 141
O=C(C1COC1)N1CCN(S(=O)(=O)N(Cc2cn3ccc(-c4nnc(C(F)F)o4)cc3n2)c2cccc(F)c2)CC1 [Compound 4310, N-((7-(5-(difluoromethyl)-1,3,4-oxadiazol-2-yl)imidazo[1,2-a]pyridin-2-yl)methyl)-N-(3-fluorophenyl)-4-(oxetane-3-carbonyl)piperazine-1-sulfonamide] | > 50000 | 681 | 73.4
O=S(=O)(N1CCN(C2CCOCC2)CC1)N(Cc1cn2ccc(-c3nnc(C(F)F)o3)cc2n1)c1cccc(F)c1 [Compound 4304, N-((7-(5-(difluoromethyl)-1,3,4-oxadiazol-2-yl)imidazo[1,2-a]pyridin-2-yl)methyl)-N-(3-fluorophenyl)-4-(tetrahydro-2H-pyran-4-yl)piperazine-1-sulfonamide] | > 50000 | 832 | 60.1
CS(=O)(=O)N1CCN(S(=O)(=O)N(Cc2cn3ccc(-c4nnc(C(F)F)o4)cc3n2)c2ccccc2)CC1 [Compound 4271, N-((7-(5-(difluoromethyl)-1,3,4-oxadiazol-2-yl)imidazo[1,2-a]pyridin-2-yl)methyl)-4-(methylsulfonyl)-N-phenylpiperazine-1-sulfonamide] | > 50000 | 215 | 232
CN1CC2(C1)CN(S(=O)(=O)N(Cc1cn3ccc(-c4nnc(C(F)F)o4)cc3n1)c1ccccc1)C2 [Compound 4624, N-((7-(5-(difluoromethyl)-1,3,4-oxadiazol-2-yl)imidazo[1,2-a]pyridin-2-yl)methyl)-6-methyl-N-phenyl-2,6-diazaspiro[3.3]heptan-2-sulfonamide] | > 50000 | 595 | 84
O=C(C1CCC1)N1CCC(S(=O)(=O)N(Cc2cn3ccc(-c4nnc(C(F)F)o4)cc3n2)c2cccc(F)c2)CC1 [Compound 4248, 1-(cyclobutanecarbonyl)-N-((7-(5-(difluoromethyl)-1,3,4-oxadiazol-2-yl)imidazo[1,2-a]pyridine-2-yl)methyl)-N-(3-fluorophenyl)piperidine-4-sulfonamide] | > 50000 | 542 | 92.2
O=S(=O)(C1CCN(C2CCC2)CC1)N(Cc1cn2ccc(-c3nnc(C(F)F)o3)cc2n1)c1cccc(F)c1 [Compound 4240, 1-cyclobutyl-N-((7-(5-(difluoromethyl)-1,3,4-oxadiazol-2-yl)imidazo[1,2-a]pyridin-2-yl)methyl)-N-(3-fluorophenyl)piperidine-4-sulfonamide] | > 50000 | 936 | 53.4

Now from value to molecule:

IC50 (human recombinant HDAC1) [nM] | HDAC6 selectivity (fold) (human recombinant HDAC6) | IC50 (human recombinant HDAC6) [nM] | SMILES
> 50000 | 488 | 102 | CC(C)N1CCN(S(=O)(=O)N(Cc2cn3ccc(-c4nnc(C(F)F)o4)cc3n2)c2cccc(F)c2)CC1 [Compound 4299, N-((7-(5-(difluoromethyl)-1,3,4-oxadiazol-2-yl)imidazo[1,2-a]pyridin-2-yl)methyl)-N-(3-fluorophenyl)-4-isopropylpiperazine-1-sulfonamide]
> 50000 | 371 | 135 | COC(=O)N1CCN(S(=O)(=O)N(Cc2cn3ccc(-c4nnc(C(F)F)o4)cc3n2)c2cccc(F)c2)CC1 [Compound 4313, methyl 4-(N-((7-(5-(difluoromethyl)-1,3,4-oxadiazol-2-yl)imidazo[1,2-a]pyridin-2-yl)methyl)-N-(3-fluorophenyl)sulfamoyl)piperazine-1-carboxylate]
> 50000 | 724 | 69.1 | O=C(CO)N1CCN(S(=O)(=O)N(Cc2cn3ccc(-c4nnc(C(F)F)o4)cc3n2)c2cccc(F)c2)CC1 [Compound 4308, N-((7-(5-(difluoromethyl)-1,3,4-oxadiazol-2-yl)imidazo[1,2-a]pyridin-2-yl)methyl)-N-(3-fluorophenyl)-4-(2-hydroxyacetyl)piperazine-1-sulfonamide]
> 50000 | 410 | 122 | CC(CO)N1CCN(S(=O)(=O)N(Cc2cn3ccc(-c4nnc(C(F)F)o4)cc3n2)c2cccc(F)c2)CC1 (stereo not drawn) [Compound 4300, N-((7-(5-(difluoromethyl)-1,3,4-oxadiazol-2-yl)imidazo[1,2-a]pyridin-2-yl)methyl)-N-(3-fluorophenyl)-4-(1-hydroxypropan-2-yl)piperazine-1-sulfonamide]
> 50000 | 631 | 79.2 | CCN1CCN(S(=O)(=O)N(Cc2cn3ccc(-c4nnc(C(F)F)o4)cc3n2)c2cccc(F)c2)CC1 [Compound 4298, N-((7-(5-(difluoromethyl)-1,3,4-oxadiazol-2-yl)imidazo[1,2-a]pyridin-2-yl)methyl)-4-ethyl-N-(3-fluorophenyl)-piperazine-1-sulfonamide]
> 50000 | 561 | 89.2 | CN1CCN(S(=O)(=O)N(Cc2cn3ccc(-c4nnc(C(F)F)o4)cc3n2)c2cccc(F)c2)CC1 [Compound 4297, N-((7-(5-(difluoromethyl)-1,3,4-oxadiazol-2-yl)imidazo[1,2-a]pyridin-2-yl)methyl)-N-(3-fluorophenyl)-4-methylpiperazine-1-sulfonamide]
